Source: US9029377B2, “Platelet-activating factor receptor antagonists” (Merck Sharp & Dohme Corp., priority 2009, dated 2015)

Target: PAFR (Homo sapiens, UniProt P25105)
Experiment: PAF Binding Assay (PAFR binding)

Chain of PAFR (P25105 whole entry): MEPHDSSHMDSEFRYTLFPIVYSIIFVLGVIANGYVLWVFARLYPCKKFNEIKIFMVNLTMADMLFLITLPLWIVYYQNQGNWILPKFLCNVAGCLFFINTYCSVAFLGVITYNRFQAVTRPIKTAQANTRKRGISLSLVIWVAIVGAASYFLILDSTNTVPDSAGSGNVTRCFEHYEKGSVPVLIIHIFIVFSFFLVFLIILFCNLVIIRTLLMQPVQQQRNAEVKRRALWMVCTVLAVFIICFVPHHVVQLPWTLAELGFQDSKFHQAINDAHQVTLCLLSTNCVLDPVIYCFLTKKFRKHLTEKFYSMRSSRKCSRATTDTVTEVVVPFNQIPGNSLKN

In the case of `CCc1cc(-c2ccc(OC(C)C)nc2)ccc1S(=O)(=O)N[C@H]1CCC[C@@H](n2cnnc2)C1` [Compound 2Aai, 2-ethyl-4-(6-isopropoxypyridin-3-yl)-N-[(1S,3R)-3-(4H-1,2,4-triazol-4-yl)cyclohexyl]benzenesulfonamide], the IC50 is reported as 1.8 nM.
Compound `O=S(=O)(N[C@H]1CCC[C@@H](n2cnnc2)C1)c1cc(-c2ccccc2OC(F)(F)F)cc(C(F)(F)F)c1` [Compound 3Am, N-[(1S,3R)-3-(4H-1,2,4-triazol-4-yl)cyclohexyl]-2′-(trifluoromethoxy)-5-(trifluoromethyl)biphenyl-3-sulfonamide] has an IC50 of 4.9 nM.
With `CCc1cc(-c2cncs2)ccc1S(=O)(=O)N[C@H]1CCC[C@@H](n2cnnc2)C1` [Compound 2Aax, 2-ethyl-4-(1,3-thiazol-5-yl)-N-[(1S,3R)-3-(4H-1,2,4-triazol-4-yl)cyclohexyl]benzenesulfonamide] the IC50 was 203 nM.
With `O=S(=O)(N[C@@H]1C[C@H](n2cnnc2)CC(F)(F)C1)c1cc(-c2cccc3cccnc23)cc(C(F)(F)F)c1` [Compound 3Cd, N-[(1R,5S)-3,3-difluoro-5-(4H-1,2,4-triazol-4-yl)cyclohexyl]-3-quinolin-8-yl-5-(trifluoromethyl)benzenesulfonamide] the IC50 was 4.8 nM.
For `O=S(=O)(N[C@H]1CCC[C@@H](n2cnnc2)C1)c1cc(F)c(-c2ccc(OC(F)(F)F)cc2)cc1F` [Compound 2Mo, 2,5-difluoro-N-[(1S,3R)-3-(4H-1,2,4-triazol-4-yl)cyclohexyl]-4′-(trifluoromethoxy)biphenyl-4-sulfonamide], the IC50 was 12 nM.
In the case of `Cc1nncn1[C@@H]1CCC[C@H](NS(=O)(=O)c2ccc(-c3noc(C4CC4)n3)cc2F)C1` [Compound 2Ja, 4-(5-cyclopropyl-1,2,4-oxadiazol-3-yl)-2-fluoro-N-[(1S,3R)-3-(3-methyl-4H-1,2,4-triazol-4-yl)cyclohexyl]benzenesulfonamide], the IC50 is reported as 22 nM.
Work on `Cc1nncn1[C@@H]1CCC[C@H](NS(=O)(=O)c2ccc(-c3ccc(OCC(F)(F)F)nc3)c(F)c2)C1` [Compound 2Ff, 3-fluoro-N-[(1S,3R)-3-(3-methyl-4H-1,2,4-triazol-4-yl)cyclohexyl]-4-[6-(2,2,2-trifluoroethoxy)pyridin-3-yl]benzenesulfonamide] yielded an IC50 of 1 nM.
Compound `O=S(=O)(N[C@H]1CCC[C@@H](n2cnnc2)C1)c1cc(-c2ccc(O)nc2)cc(C(F)(F)F)c1` [Compound 3Ai, 3-(6-hydroxypyridin-3-yl)-N-[(1S,3R)-3-(4H-1,2,4-triazol-4-yl)cyclohexyl]-5-(trifluoromethyl)benzenesulfonamide] has an IC50 of 526 nM.
With `Cc1cn(-c2ccc(S(=O)(=O)N[C@H]3CCC[C@@H](n4cnnc4C)C3)cc2)cn1` [Compound 2Nt, 4-(4-methyl-1H-imidazol-1-yl)-N-[(1S,3R)-3-(3-methyl-4H-1,2,4-triazol-4-yl)cyclohexyl]benzenesulfonamide] the IC50 was 870 nM.
`O=S(=O)(N[C@H]1CCC[C@@H](n2cnnc2)C1)c1cc(-c2ccc3nc(C(F)(F)F)nn3n2)cc(C(F)(F)F)c1` [Compound 3Aah, N-[(1S,3R)-3-(4H-1,2,4-triazol-4-yl)cyclohexyl]-3-(trifluoromethyl)-5-[2-(trifluoromethyl)[1,2,4]triazolo[1,5-b]pyridazin-6-yl]benzenesulfonamide] showed an IC50 of 18 nM.
Work on `O=S(=O)(N[C@H]1CCC[C@@H](n2cnnc2)C1)c1ccc(-c2ccc(OCC(F)(F)F)nc2)c(F)c1` [Compound 2Ef, 3-fluoro-N-[(1S,3R)-3-(4H-1,2,4-triazol-4-yl)cyclohexyl]-4-[6-(2,2,2-trifluoroethoxy)pyridin-3-yl]benzenesulfonamide] yielded an IC50 of 7 nM.
In the case of `CCc1cc(-n2cnnc2C)ccc1S(=O)(=O)N[C@H]1CCC[C@@H](n2cnnc2)C1` [Compound 4b, 2-ethyl-4-(3-methyl-4H-1,2,4-triazol-4-yl)-N-[(1S,3R)-3-(4H-1,2,4-triazol-4-yl)cyclohexyl]benzenesulfonamide], the IC50 is reported as 9800 nM.
